Reference: paper PMC10584170, “Machine learning-based phenotypic imaging to characterise the targetable biology of Plasmodium falciparum male gametocytes for the development of transmission-blocking antimalarials” (PLOS Pathogens, 2023)
Where two headings read alike, the source gives them in different places.

Columns and labels:
[1] = system: P. falciparum male gametocytes; assay: P. falciparum Dual Gamete Formation Assay (PfDGFA), male readout (exflagellation); format: cell-based, Plasmodium falciparum NF54; conditions: for Selectivity Ratio M: HepG2 Tox50 versus male IC50; for IC50: PfDGFA, 24 h incubation with gametocytes before induction, exflagellation readout, read-out: Male IC50; for HitlevelM: number of replicates with >50% inhibition in the male readout
In short: (§1)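 Mature NF54 gametocytes (day 14) were incubated with compound for 24 h at 37°C under 1% O2/3% CO2, then triggered with xanthurenic acid ookinete medium plus Cy3-anti-Pfs25. Exflagellation was imaged by brightfield; after a further 24 h at 28°C, Pfs25-positive female gametes were imaged by fluorescence and counted by automated image analysis.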

[2] = system: P. falciparum female gametocytes; assay: P. falciparum Dual Gamete Formation Assay (PfDGFA), female readout (Pfs25-positive female gametes); format: cell-based, Plasmodium falciparum NF54; conditions: for Selectivity ratio F: HepG2 Tox50 versus female IC50; for IC50: PfDGFA, 24 h incubation with gametocytes before induction, female gamete readout, read-out: Female IC50; for HitlevelF: number of replicates with >50% inhibition in the female readout
In short: as §1

[3] = system: HepG2 cells; assay: HepG2 cytotoxicity counter-screen; conditions: cytotoxic activity against HepG2 cells
[4] = PfDGFA at 2µM, 24h preincubation with gametocytes, average of replicates
[5] = PfDGFA at 2µM, 24h preincubation with gametocytes, replicate R1
[6] = PfDGFA at 2µM, 24h preincubation with gametocytes, replicate R3
[7] = PfDGFA at 2µM, 24h preincubation with gametocytes, replicate R4
[8] = 2µM, 24h preincubation with gametocytes, average of replicates
[9] = 2µM, 24h preincubation with gametocytes, replicate R1
[10] = 2µM, 24h preincubation with gametocytes, replicate R3
[11] = 2µM, 24h preincubation with gametocytes, replicate R4
[12] = 2µM, 24h preincubation with gametocytes prior to induction of gametogenesis, average of replicates
[13] = 2µM, 24h preincubation with gametocytes prior to induction of gametogenesis, replicate R1
[14] = 2µM, 24h preincubation with gametocytes prior to induction of gametogenesis, replicate R3
[15] = 2µM, 24h preincubation with gametocytes prior to induction of gametogenesis, replicate R4
[16] = Plasmodium falciparum, 2µM, 24h preincubation with gametocytes, average of replicates, read-out: Average inhibition male (%)
[17] = Plasmodium falciparum, 2µM, 24h preincubation with gametocytes, replicate R1, read-out: % inhibition male (individual replicates) R1
[18] = Plasmodium falciparum, 2µM, 24h preincubation with gametocytes, replicate R2, read-out: % inhibition male (individual replicates) R2
[19] = Plasmodium falciparum, 2µM, 24h preincubation with gametocytes, replicate R3, read-out: % inhibition male (individual replicates) R3
[20] = Plasmodium falciparum, 2µM, 24h preincubation with gametocytes, replicate R4, read-out: % inhibition male (individual replicates) R4
[21] = Plasmodium falciparum, 2µM, 24h preincubation with gametocytes, average of replicates, read-out: Average inhibition female (%)
[22] = Plasmodium falciparum, 2µM, 24h preincubation with gametocytes, replicate R1, read-out: % inhibition female (individual replicates) R1
[23] = Plasmodium falciparum, 2µM, 24h preincubation with gametocytes, replicate R2, read-out: % inhibition female (individual replicates) R2
[24] = Plasmodium falciparum, 2µM, 24h preincubation with gametocytes, replicate R3, read-out: % inhibition female (individual replicates) R3
[25] = Plasmodium falciparum, 2µM, 24h preincubation with gametocytes, replicate R4, read-out: % inhibition female (individual replicates) R4

Row | SMILES | Selectivity Ratio M [1] | IC50 [1] [µM] | Selectivity ratio F [2] | IC50 [2] [µM] | Tox50 [3] [µM] | Average inhibition male (%) [1, 8] [%] | % inhibition male (individual replicates) R1 [1, 9] [%] | % inhibition male (individual replicates) R3 [1, 10] [%] | % inhibition male (individual replicates) R4 [1, 11] [%] | Average inhibition female (%) [2, 8] [%] | % inhibition female (individual replicates) R1 [2, 9] [%] | % inhibition female (individual replicates) R3 [2, 10] [%] | % inhibition female (individual replicates) R4 [2, 11] [%] | IC50 ([1]; Plasmodium falciparum) [µM] | IC50 ([2]; Plasmodium falciparum) [µM] | inhibition at 2 µM [1, 16] [%] | inhibition at 2 µM [1, 17] [%] | inhibition at 2 µM [1, 18] [%] | inhibition at 2 µM [1, 20] [%] | inhibition at 2 µM [2, 21] [%] | further results
1 | COc1cc2nc(N3CCC(CNC(=O)c4ccc(-c5ccc(Cl)cc5)cc4)CC3)nc(N)c2cc1OC [TCMDC-138718] | 3.57 | 1.94 | 3.36 | 2.06 | 6.93 | – | – | – | – | – | – | – | – | – | – | – | – | – | – | – | Average inhibition male (%) [1, 4]: 79.1%; % inhibition male (individual replicates) R1 [1, 5]: 85.4%; % inhibition male (individual replicates) R3 [1, 6]: 66.5%; % inhibition male (individual replicates) R4 [1, 7]: 84.2%; HitlevelM ([1]; 2µM): 4; Average inhibition female (%) [2, 4]: 49.0%; % inhibition female (individual replicates) R1 [2, 5]: 33.3%; % inhibition female (individual replicates) R3 [2, 6]: 38.5%; % inhibition female (individual replicates) R4 [2, 7]: 37.2%; HitlevelF ([2]; 2µM): 1
2 | COc1cc2nc(N3CCC(CNC(=O)c4ccc(-c5ccc(-c6noc(C)n6)cc5)cc4)CC3)nc(N)c2cc1OC [TCMDC-138754] | 6 | 0.61 | 6.02 | 0.61 | 3.68 | 99.2 | 101.8 | 98.0 | 96.9 | 48.8 | 31.8 | 47.5 | 53.9 | – | – | – | – | – | – | – | –
3 | COc1cc2nc(N3CCC(CNCc4ccc(-c5ccc(C(F)(F)F)cc5)cc4)CC3)nc(N)c2cc1OC [TCMDC-138757] | 9.29 | 0.22 | 8.75 | 0.23 | 2.05 | 97.9 | 97.9 | 96.8 | 99.6 | 59.1 | 32.6 | 30.7 | 89.8 | – | – | – | – | – | – | – | –
4 | Cl.Clc1ccc(OCCC2CCN(CCCCCCCN3CCC(CCOc4ccc(Cl)c(Cl)c4)CC3)CC2)cc1Cl [TCMDC-138967] | 2.82 | 1.19 | 1.93 | 1.74 | 3.36 | 95.6 | 93.1 | 96.8 | 99.1 | 87.8 | 88.3 | 97.6 | 78.8 | – | – | – | – | – | – | – | –
5 | COc1ccc(NC(=O)c2ccc(OCCCCCCCOc3ccc(C(=O)Nc4ccc(OC)c(N5CCN(C)CC5)c4)cc3)cc2)cc1N1CCN(C)CC1.O=C(O)C(=O)O [TCMDC-139007] | 4.37 | 0.9 | 2.96 | 1.33 | 3.94 | 92.9 | 92.7 | 82.0 | 95.6 | 47.5 | 33.2 | 33.3 | 62.1 | – | – | – | – | – | – | – | –
6 | COc1ccc(NC(=O)c2cccc(Br)c2)cc1N1CCN(CCCCCCCN2CCN(c3cc(NC(=O)c4cccc(Br)c4)ccc3OC)CC2)CC1.Cl [TCMDC-139020] | 4 | 1.98 | 4.34 | 1.83 | 7.95 | – | – | – | – | – | – | – | – | – | – | – | – | – | – | – | Average inhibition male (%) [1, 12]: 30.8%; % inhibition male (individual replicates) R1 [1, 13]: 35.3%; % inhibition male (individual replicates) R3 [1, 14]: 36.0%; % inhibition male (individual replicates) R4 [1, 15]: 43.4%; HitlevelM ([1]; 2µM, 24h preincubation): 0; Average inhibition female (%) [2, 12]: 52.2%; % inhibition female (individual replicates) R1 [2, 13]: 51.4%; % inhibition female (individual replicates) R3 [2, 14]: 52.5%; % inhibition female (individual replicates) R4 [2, 15]: 56.9%; HitlevelF ([2]; 2µM, 24h preincubation): 3
7 | COc1cccc(C23NC(=Nc4nc5ccccc5[nH]4)NC2(c2cccc(OC)c2)NC(=Nc2nc4ccccc4[nH]2)N3)c1 (centres unmarked) [TCMDC-139087] | 17.52 | – | 24.94 | – | 32.37 | – | – | – | – | – | – | – | – | 1.85 | 1.3 | – | – | – | – | – | inhibition at 2 µM ([1]; Plasmodium falciparum, PfDGFA at 2µM, 24h preincubation with gametocytes, average of replicates, read-out: Average inhibition male (%)): 78.4%; inhibition at 2 µM ([1]; Plasmodium falciparum, PfDGFA at 2µM, 24h preincubation with gametocytes, replicate R1, read-out: % inhibition male (individual replicates) R1): 83%; inhibition at 2 µM ([1]; Plasmodium falciparum, PfDGFA at 2µM, 24h preincubation with gametocytes, replicate R2, read-out: % inhibition male (individual replicates) R2): 72.6%; inhibition at 2 µM ([1]; Plasmodium falciparum, PfDGFA at 2µM, 24h preincubation with gametocytes, replicate R3, read-out: % inhibition male (individual replicates) R3): 79%; inhibition at 2 µM ([1]; Plasmodium falciparum, PfDGFA at 2µM, 24h preincubation with gametocytes, replicate R4, read-out: % inhibition male (individual replicates) R4): 78.9%; HitlevelM ([1]; 2µM): 4; inhibition at 2 µM ([2]; Plasmodium falciparum, PfDGFA at 2µM, 24h preincubation with gametocytes, average of replicates, read-out: Average inhibition female (%)): 28.9%; inhibition at 2 µM ([2]; Plasmodium falciparum, PfDGFA at 2µM, 24h preincubation with gametocytes, replicate R1, read-out: % inhibition female (individual replicates) R1): 18.4%; inhibition at 2 µM ([2]; Plasmodium falciparum, PfDGFA at 2µM, 24h preincubation with gametocytes, replicate R2, read-out: % inhibition female (individual replicates) R2): 40.4%; inhibition at 2 µM ([2]; Plasmodium falciparum, PfDGFA at 2µM, 24h preincubation with gametocytes, replicate R3, read-out: % inhibition female (individual replicates) R3): 9.2%; inhibition at 2 µM ([2]; Plasmodium falciparum, PfDGFA at 2µM, 24h preincubation with gametocytes, replicate R4, read-out: % inhibition female (individual replicates) R4): 47.7%; HitlevelF ([2]; 2µM): 0
8 | c1ccc(-c2nc(Nc3nc4ccccc4[nH]3)[nH]c2-c2ccccc2)cc1 [TCMDC-139099] | 17.05 | – | 15.94 | – | 16.22 | – | – | – | – | – | – | – | – | 0.95 | 1.02 | 97.9 | 97.5 | 98.5 | 98.9 | 58.5 | inhibition at 2 µM [1, 19]: 96.8%; inhibition at 2 µM [2, 22]: 38.7%; inhibition at 2 µM [2, 23]: 75.2%; inhibition at 2 µM [2, 24]: 46.9%; inhibition at 2 µM [2, 25]: 73.1%
9 | COc1ccc2nc(N=C3NC4(c5ccccc5)NC(=Nc5nc6ccc(OC)cc6[nH]5)NC4(c4ccccc4)N3)[nH]c2c1.O=C(O)C(F)(F)F (centres unmarked) [TCMDC-139632] | 29.01 | – | 5.74 | – | 33.52 | – | – | – | – | – | – | – | – | 1.16 | 5.84 | 94.4 | 95.5 | 96.3 | 90.9 | 18.9 | inhibition at 2 µM [1, 19]: 95.1%; inhibition at 2 µM [2, 22]: 23.3%; inhibition at 2 µM [2, 23]: 24.8%; inhibition at 2 µM [2, 24]: 10.6%; inhibition at 2 µM [2, 25]: 17.1%
10 | Br.c1cc(Nc2nc(-c3ccc(-c4csc(Nc5ccncc5)n4)cc3)cs2)ccn1 [TCMDC-139725] | 15.17 | – | 15.01 | – | 4.53 | – | – | – | – | – | – | – | – | 0.3 | 0.3 | 95.5 | 101 | 98.4 | 91.8 | 92.1 | inhibition at 2 µM [1, 19]: 91.3%; inhibition at 2 µM [2, 22]: 90.8%; inhibition at 2 µM [2, 23]: 87.3%; inhibition at 2 µM [2, 24]: 93.4%; inhibition at 2 µM [2, 25]: 96.9%
11 | CN(C)c1ccnc2ccc(NC(=O)Nc3ccnc4ccccc34)cc12 [TCMDC-139749] | 13.31 | – | 3.83 | – | 22.68 | – | – | – | – | – | – | – | – | 1.7 | 5.92 | 96.1 | 97.3 | 94.7 | 96.1 | 29.2 | inhibition at 2 µM [2, 22]: 32.7%; inhibition at 2 µM [2, 23]: 28.8%; inhibition at 2 µM [2, 24]: 22.7%; inhibition at 2 µM [2, 25]: 32.6%
